Experimental data from patent US9969979B2, “Methods for producing cells having a phenotype of a primary human hepatocytes and compositions” (The Governors of the University of Alberta, priority 2012, dated 2018).

System: Huh7.5 cells
Experiment: Quantitative RT-PCR of hepatocyte differentiation markers in cultured Huh7.5 cells
Assay type: cell-based, human
Settings: Huh7.5 cells grown 3 weeks, relative to FBS
Protocol: RNA was isolated from cells using Trizol, according to the instructions of the manufacturer. cDNA was produced from the RNA using Quantitect Reverse Transcription kit (Qiagen). Gene specific primer-probe sets were designed by Applied Biosystems. An Applied Biosystems 7900HT Fast Real-Time PCR system was used for the quantitation of gene products. Gene expression was calculated relative to HPRT according to Pfaffl (Pfaffl M W. Nucleic Acids Res 29: e45, 2001).
To further evaluate the effect of culturing cells in HS-containing medium, and to assess whether these cells underwent differentiation to a primary hepatocyte-like cell, level of expression of hepatocyte differentiation marker were assayed at 7 days and 21 days after transfer of Huh7.5 cells into HS-supplemented medium. After 7 days only minor changes in hepatocyte markers were observed. (FIG. 3A) However, after 21 days, the expression of the hepatic differentiation markers albumin and alpha1-antiTrypsin was increased approximately 4 fold in cells grown in human serum compared to FBS. The level of expression of these proteins is similar to the level of expression of human primary hepatocytes in culture.
DMSO, (dimethyl sulfoxide) has been reported to induce growth arrest in HuH-7 or -derived cells, and other hepatoma cells. (Sainz et al. (2006) J Virol 80: 10253-10257). […]

C[S+](C)[O-] [DMSO, dimethyl sulfoxide]
Albumin expression: slight increase
